ChEMBL document CHEMBL1124555, “9-Amino-1,2,3,4-tetrahydroacridin-1-ols: synthesis and evaluation as potential Alzheimer's disease therapeutics” (J Med Chem, 1989)

Assays:
Acetylcholinesterase = molecular target: T1, Acetylcholinesterase (Rattus norvegicus, UniProt P37136)
T1 sequence (P37136 whole entry): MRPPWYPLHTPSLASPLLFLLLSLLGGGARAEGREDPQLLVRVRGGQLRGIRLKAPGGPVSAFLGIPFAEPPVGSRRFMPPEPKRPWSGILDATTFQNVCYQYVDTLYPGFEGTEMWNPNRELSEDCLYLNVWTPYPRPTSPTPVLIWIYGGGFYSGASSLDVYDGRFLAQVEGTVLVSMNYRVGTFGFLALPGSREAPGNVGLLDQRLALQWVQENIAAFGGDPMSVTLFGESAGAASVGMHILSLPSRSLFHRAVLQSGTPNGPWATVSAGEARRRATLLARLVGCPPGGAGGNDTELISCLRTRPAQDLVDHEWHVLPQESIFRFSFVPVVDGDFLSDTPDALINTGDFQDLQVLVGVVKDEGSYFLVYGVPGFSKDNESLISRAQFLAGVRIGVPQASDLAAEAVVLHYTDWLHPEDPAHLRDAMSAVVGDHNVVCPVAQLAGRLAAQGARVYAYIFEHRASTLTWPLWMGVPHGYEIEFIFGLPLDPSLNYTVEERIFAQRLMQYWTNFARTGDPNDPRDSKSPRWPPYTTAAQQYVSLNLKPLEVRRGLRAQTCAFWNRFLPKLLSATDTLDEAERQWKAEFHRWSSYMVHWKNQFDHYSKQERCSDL
Description: In vitro inhibition against acetylcholinesterase in rat striata.

Mus musculus [1] = species on record: Mus musculus; assay type: functional; conditions: at 0.16 mg/kg
Description: Reversal of scopolamine-induced memory impairment in mice at 0.16 mg/Kg administered subcutaneously.

Mus musculus [2] = species on record: Mus musculus; assay type: functional; conditions: at […]
Description: Reversal of scopolamine-induced memory impairment in mice at 0.31 mg/Kg administered subcutaneously.

Mus musculus [3] = species on record: Mus musculus; assay type: functional; conditions: at 0.63 mg/kg
Description: Reversal of scopolamine-induced memory impairment in mice at 0.63 mg/Kg administered subcutaneously.

Mus musculus [4] = species on record: Mus musculus; assay type: functional; conditions: at 1.25 mg/kg
Description: Reversal of scopolamine-induced memory impairment in mice at 1.25 mg/Kg administered subcutaneously.

Mus musculus [5] = species on record: Mus musculus; assay type: functional; conditions: at 2.5 mg/kg
Description: Reversal of scopolamine-induced memory impairment in mice at 2.5 mg/Kg administered subcutaneously.

Mus musculus [6] = species on record: Mus musculus; assay type: functional; conditions: at 5 mg/kg
Description: Reversal of scopolamine-induced memory impairment in mice at 5 mg/Kg administered subcutaneously.

[7] = molecular target: Sodium-dependent dopamine transporter (Rattus norvegicus, UniProt P23977); assay type: functional
Description: Inhibition of the reuptake of dopamine in rat corpora striata.

[8] = molecular target: Sodium-dependent serotonin transporter (Rattus norvegicus, UniProt P31652); assay type: functional
Description: Inhibition of serotonin reuptake in rat whole brains without cerebellum

[9] = molecular target: Norepinephrine transporter (Rattus norvegicus, UniProt Q9WTR4)
Description: Inhibition of norepinephrine reuptake in rat whole brains minus cerebellar

in vivo = conditions: rat, ip
Description: Toxicity evaluated in rats after intraperitoneal administration.

[10] = Toxicity was evaluated in rats, after intraperitoneal administration;Value ranges from (40-80).; assay type: organism-based; conditions: rat, in vivo, ip
[11] = Toxicity was evaluated in rats, after intraperitoneal administration;Value ranges from(40-80); assay type: organism-based; conditions: rat, in vivo, ip

Chain of Sodium-dependent serotonin transporter (P31652 whole entry): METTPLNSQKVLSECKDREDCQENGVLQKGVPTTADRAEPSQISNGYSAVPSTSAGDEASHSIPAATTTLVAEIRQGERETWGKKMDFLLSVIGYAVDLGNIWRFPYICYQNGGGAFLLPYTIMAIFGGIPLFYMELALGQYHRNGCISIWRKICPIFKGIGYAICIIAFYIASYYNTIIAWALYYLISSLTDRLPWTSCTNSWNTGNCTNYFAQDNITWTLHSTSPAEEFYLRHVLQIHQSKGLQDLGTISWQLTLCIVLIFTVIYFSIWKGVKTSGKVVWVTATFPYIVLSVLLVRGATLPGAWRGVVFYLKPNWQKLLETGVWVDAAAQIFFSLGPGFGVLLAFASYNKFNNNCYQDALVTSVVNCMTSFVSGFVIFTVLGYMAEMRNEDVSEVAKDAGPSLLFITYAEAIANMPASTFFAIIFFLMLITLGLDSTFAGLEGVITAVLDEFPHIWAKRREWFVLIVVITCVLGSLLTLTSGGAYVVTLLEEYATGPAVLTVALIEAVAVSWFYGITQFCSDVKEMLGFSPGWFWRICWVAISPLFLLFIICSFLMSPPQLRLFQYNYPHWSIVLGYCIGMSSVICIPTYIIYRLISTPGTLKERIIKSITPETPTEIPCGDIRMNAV
Chain of Norepinephrine transporter (Q9WTR4 whole entry): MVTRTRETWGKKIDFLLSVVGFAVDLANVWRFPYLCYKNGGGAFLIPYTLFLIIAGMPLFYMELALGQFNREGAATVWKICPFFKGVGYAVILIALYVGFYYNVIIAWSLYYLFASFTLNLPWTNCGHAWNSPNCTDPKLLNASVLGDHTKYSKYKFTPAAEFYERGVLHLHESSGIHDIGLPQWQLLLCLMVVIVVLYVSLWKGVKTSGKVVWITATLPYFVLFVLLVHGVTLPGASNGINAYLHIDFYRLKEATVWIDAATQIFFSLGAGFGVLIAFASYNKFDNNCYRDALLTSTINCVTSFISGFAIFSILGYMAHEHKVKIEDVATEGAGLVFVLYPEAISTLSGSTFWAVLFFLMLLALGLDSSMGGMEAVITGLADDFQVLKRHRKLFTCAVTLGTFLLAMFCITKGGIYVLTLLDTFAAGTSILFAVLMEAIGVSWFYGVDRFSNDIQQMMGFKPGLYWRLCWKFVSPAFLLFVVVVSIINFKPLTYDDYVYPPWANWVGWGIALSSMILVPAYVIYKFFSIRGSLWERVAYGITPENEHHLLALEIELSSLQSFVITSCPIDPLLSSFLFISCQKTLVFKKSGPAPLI
Chain of Sodium-dependent dopamine transporter (P23977 whole entry): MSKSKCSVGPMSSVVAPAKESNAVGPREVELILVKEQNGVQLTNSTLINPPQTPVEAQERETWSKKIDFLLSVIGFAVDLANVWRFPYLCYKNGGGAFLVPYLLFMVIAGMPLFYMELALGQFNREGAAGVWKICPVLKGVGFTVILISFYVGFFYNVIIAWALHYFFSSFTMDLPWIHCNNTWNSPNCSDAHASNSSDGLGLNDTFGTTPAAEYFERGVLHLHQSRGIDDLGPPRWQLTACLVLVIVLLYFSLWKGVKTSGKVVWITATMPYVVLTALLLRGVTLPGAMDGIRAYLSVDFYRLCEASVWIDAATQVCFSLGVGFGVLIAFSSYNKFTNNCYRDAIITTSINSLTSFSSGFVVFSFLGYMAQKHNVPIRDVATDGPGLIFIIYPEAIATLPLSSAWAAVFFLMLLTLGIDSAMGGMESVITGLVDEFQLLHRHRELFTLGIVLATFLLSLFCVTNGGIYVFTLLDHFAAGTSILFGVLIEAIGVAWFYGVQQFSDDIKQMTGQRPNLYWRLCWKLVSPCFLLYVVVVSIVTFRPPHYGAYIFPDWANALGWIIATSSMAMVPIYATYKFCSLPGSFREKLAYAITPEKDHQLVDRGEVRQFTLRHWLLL

SMILES	IC50 (Acetylcholinesterase) [µM]	Animals (Mus musculus [1]) [%]	Animals (Mus musculus [2]) [%]	Animals (Mus musculus [3]) [%]	Animals (Mus musculus [4]) [%]	Animals (Mus musculus [5]) [%]	Animals (Mus musculus [6]) [%]	IC50 [7] [µM]	IC50 [8] [µM]	IC50 [9] [µM]	LD50 (in vivo) [mg/kg]	LD50 [10] [mg/kg]	LD50 [11] [mg/kg]
COc1cccc(CNc2c3c(nc4ccccc24)CCCC3O)c1 (configuration not stated)	21.1	0	0	0	0	0	0	2.1	6.2	1.5	> 80		
OC1CCCc2nc3ccccc3c(NCc3cccc(C(F)(F)F)c3)c21 (configuration not stated)	14.2	0	0	0	7	0	0	2.4	2.3	0.93		< 80	
OC1CCCc2nc3ccccc3c(NCCCC(c3ccccc3)c3ccccc3)c21 (configuration not stated)	49.3	20	6	6	13	0	6	2.1	5.7	1.5	> 80		
Cc1cccc(CNc2c3c(nc4ccccc24)CCCC3O)c1 (configuration not stated)	24.5	7	7	20	20	13	20	0.51	5.5	0.22			< 80
Cc1ccc(CNc2c3c(nc4ccccc24)CCCC3O)cc1 (configuration not stated)	21							2.2	8	1.1	> 80		
OC1CCCc2nc3ccccc3c(NCc3ccccc3F)c21 (configuration not stated)	41.3	7	14	33	7	20	7	0.41	17	0.11		< 80	
COc1ccc(CNc2c3c(nc4ccccc24)CCCC3O)cc1 (configuration not stated)	10.9							5.3	5	25	> 80		
OC1CCCc2nc3ccccc3c(NCCCC(c3ccc(F)cc3)c3ccc(F)cc3)c21 (configuration not stated)	87.8										> 80		
OC1CCCc2nc3cc(Cl)ccc3c(NCc3ccc(F)cc3)c21 (configuration not stated)	0.823	13	7	7	7	0	0	4.1	6.6	2.2	> 80		
OC1CCCc2nc3ccccc3c(NCc3ccccc3Cl)c21 (configuration not stated)	10.3	0	27	7	27	13	7	0.13	9.3	0.043	> 80		
OC1CCCc2nc3cc(F)ccc3c(NCc3ccccc3C(F)(F)F)c21 (configuration not stated)	20.1	0	20	7	0	0	13	0.31	20	0.54	> 80		
OC1CCCc2nc3ccccc3c(NCc3ccc(F)cc3)c21 (configuration not stated)	16.7	7	20	25	27	33	6	2.9	12	1.8		< 80	
O=C(O)/C=C/C(=O)O.OC1CCCc2nc3ccccc3c(NCCCC(c3cccc(F)c3)c3cccc(F)c3)c21 (configuration not stated)	63										> 80		
OC1CCCc2nc3ccccc3c(NCc3cccc(Cl)c3)c21 (configuration not stated)	13.3										> 80		
OC1CCCc2nc3cc(Cl)ccc3c(NCc3ccccc3)c21 (configuration not stated)	1.3	0	13	7	7	7	0	1.3	15	0.82	> 80		
COc1ccc2c(N)c3c(nc2c1)CCCC3O (configuration not stated)	2										> 80		

SMILES	IC50 (Acetylcholinesterase) [µM]	Animals (Mus musculus [1]) [%]	Animals (Mus musculus [2]) [%]	Animals (Mus musculus [3]) [%]	Animals (Mus musculus [4]) [%]	Animals (Mus musculus [5]) [%]	Animals (Mus musculus [6]) [%]	IC50 [7] [µM]	IC50 [8] [µM]	IC50 [9] [µM]	LD50 (in vivo) [mg/kg]	LD50 [10] [mg/kg]	LD50 [11] [mg/kg]
OC1CCCc2nc3ccccc3c(NCCCOc3ccccc3)c21 (configuration not stated)	3.98	0	0	0	13	7					> 80		
COc1ccccc1CNc1c2c(nc3ccccc13)CCCC2O (configuration not stated)	36	33	7	20	7	13	27	0.72	9.8	4.8	80		
O=C(O)/C=C/C(=O)O.OC1CCCc2nc3ccccc3c(NCc3cccs3)c21 (configuration not stated)	15.3							2.4	20	0.29	> 80		
OC1CCCc2nc3cc(F)ccc3c(NCc3ccccc3)c21 (configuration not stated)	8.63	13	0	0	0	0	0			0.2		< 80	
OC1CCCc2nc3ccccc3c(NCc3ccc(Cl)cc3)c21 (configuration not stated)	27.2							9.8	5.7	1.1	> 80		
OC1CCCc2nc3cc(C(F)(F)F)ccc3c(NCc3ccccc3)c21 (configuration not stated)	68.2										> 80		
O=C(O)/C=C/C(=O)O.OC1CCCc2nc3ccccc3c(NCc3c(F)c(F)c(F)c(F)c3F)c21 (configuration not stated)	12.6	7	7	7	13	0	20			11	> 80		
OC1CCCc2nc3ccccc3c(NCc3cccc(F)c3)c21 (configuration not stated)	13.1	33	23	7	0	14	21	0.3	6.2	0.12		< 80	
Nc1c2c(nc3cc(C(F)(F)F)ccc13)CCCC2O (configuration not stated)	1.77	40	26	71	33	21	33						< 80
CN(C)CCNc1c2c(nc3ccccc13)CCCC2O (configuration not stated)	7.68										> 80		
Nc1c2c(nc3cc(F)ccc13)CCCC2O (configuration not stated)	0.292	73	29	20	20	33	40			> 10	40		
Nc1c2c(nc3cc(Cl)ccc13)CCCC2O (configuration not stated)	0.0117	7	7	0	7	0	16	> 20	> 20	> 20	> 10		
Nc1c2c(nc3ccccc13)CCC2O (configuration not stated)	5.97	13	13	0	0	7	7				> 80		
OC1CCCc2nc3ccccc3c(NCCc3ccccc3)c21 (configuration not stated)	3.39	7	20	0	23	0	0	4.7	7.7	1.4	> 80		
OC1CCCc2nc3ccccc3c(NCc3ccc(C(F)(F)F)cc3)c21 (configuration not stated)	18.1	22	8	7	15	0	20	2.4	6.6	0.27	> 80		
